Results reported in US10058534B2, “Benzothiophene derivatives and compositions thereof as selective estrogen receptor degraders” (NOVARTIS AG, priority 2013, dated 2018).

Molecular target: ERα (Homo sapiens (Human), UniProt P03372)
Experiment: ERα degradation (MCF7 cells), in-cell Western
Format: cell-based
Settings: MCF7 cells; for % ERα remaining: remaining ERα protein at 10 μM ligand, relative to DMSO control
Protocol: ERα Degradation (MCF7 Cells)
The column titled MCF7 IC50 reports the inflection point of the inhibition of transcription in MCF7 cells as described above. Percentage ERα remaining reports the remaining ERα protein measured at 10 μM concentration of the ligand as described above. The column ERα IC50 reports the inflection point of the degradation in response to the ligand concentration.

[1] = inflection point of the degradation in response to ligand concentration

Sequence of ERα (P03372 whole entry): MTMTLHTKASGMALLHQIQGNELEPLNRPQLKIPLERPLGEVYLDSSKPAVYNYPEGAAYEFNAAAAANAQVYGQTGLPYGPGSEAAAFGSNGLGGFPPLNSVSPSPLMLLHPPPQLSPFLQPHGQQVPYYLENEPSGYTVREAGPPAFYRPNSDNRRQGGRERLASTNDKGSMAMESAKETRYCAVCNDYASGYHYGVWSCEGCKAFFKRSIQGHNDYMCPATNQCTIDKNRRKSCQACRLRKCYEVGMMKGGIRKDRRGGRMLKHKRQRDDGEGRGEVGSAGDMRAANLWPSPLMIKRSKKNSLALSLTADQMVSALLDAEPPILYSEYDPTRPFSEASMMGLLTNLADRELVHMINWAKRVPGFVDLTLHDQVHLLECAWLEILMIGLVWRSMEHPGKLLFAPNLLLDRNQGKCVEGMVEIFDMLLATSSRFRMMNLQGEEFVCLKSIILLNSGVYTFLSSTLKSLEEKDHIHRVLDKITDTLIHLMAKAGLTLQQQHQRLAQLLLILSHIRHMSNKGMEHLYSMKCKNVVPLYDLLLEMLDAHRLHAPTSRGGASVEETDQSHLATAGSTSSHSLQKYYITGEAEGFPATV

SMILES | IC50 [1] | % ERα remaining | DC50 (inflection point of the degradation in response to ligand concentration, read-out: ERα IC50)
O=C(O)CCc1ccc(Oc2c(-c3ccc(O)cc3)sc3cc(O)ccc23)cc1 [Example 1, 3-(4-((6-hydroxy-2-(4-hydroxyphenyl)-benzo[b]thiophen-3-yl)oxy)phenyl)propanoic acid] | 31 nM | 58% | –
O=C(O)/C=C/c1ccc(Oc2c(-c3ccc(C(F)(F)F)cc3)sc3cc(O)ccc23)cc1 [Example 3, (E)-3-(4-((6-hydroxy-2-(4-(trifluoromethyl)phenyl)benzo[b]thiophen-3-yl)oxy)phenyl)acrylic acid] | 34 nM | 18% | –
CC(C)c1ccccc1-c1sc2cc(O)ccc2c1Oc1ccc(/C=C/C(=O)O)cc1 [Example 4, (E)-3-(4-((6-hydroxy-2-(2-isopropylphenyl)benzo[b]thiophen-3-yl)oxy)phenyl)acrylic acid] | 0.4 nM | 13% | –
Cc1ccccc1-c1sc2cc(O)ccc2c1Oc1ccc(/C=C/C(=O)O)cc1 [Example 5, (E)-3-(4-((6-hydroxy-2-(o-tolyl)benzo-[b]thiophen-3-yl)oxy)-phenyl)acrylic acid] | 4 nM | 20% | –
O=C(O)/C=C/c1ccc(Oc2c(-c3ccc(Cl)cc3)sc3cc(O)ccc23)cc1 [Example 6, (E)-3-(4-((2-(4-chlorophenyl)-6-hydroxybenzo[b]thiophen-3-yl)oxy)phenyl)-acrylic acid] | – | 21% | –
O=C(O)/C=C/c1ccc(Oc2c(-c3cccc(F)c3)sc3cc(O)ccc23)cc1 [Example 7, (E)-3-(4-((2-(3-fluorophenyl)-6-hydroxybenzo[b]thiophen-3-yl)oxy)phenyl)-acrylic acid] | – | 22% | –
O=C(O)/C=C/c1ccc(Oc2c(-c3ccccc3C(F)(F)F)sc3cc(O)ccc23)cc1 [Example 8, (E)-3-(4-((6-hydroxy-2-(2-(trifluoromethyl)-phenyl)benzo[b]thiophen-3-yl)oxy)phenyl)-acrylic acid] | 1 nM | 17% | –
O=C(O)/C=C/c1ccc(Oc2c(-c3ccccc3Cl)sc3cc(O)ccc23)cc1 [Example 9, (E)-3-(4-((2-(2-chlorophenyl)-6-hydroxybenzo[b]thiophen-3-yl)oxy)phenyl)-acrylic acid] | 6 nM | 18% | –
Cc1cc(C(F)(F)F)ccc1-c1sc2cc(O)ccc2c1Oc1ccc(/C=C/C(=O)O)cc1 [Example 10, (E)-3-(4-((6-hydroxy-2-(2-methyl-4-(trifluoromethyl)phenyl)benzo[b]thiophen-3-yl)oxy)phenyl)acrylic acid] | 5 nM | 17% | –
O=C(O)/C=C/c1ccc(Oc2c(-c3ccc(C(F)(F)F)cc3C(F)(F)F)sc3cc(O)ccc23)cc1 [Example 11, (E)-3-(4-((2-(2,4-bis(trifluoromethyl)phenyl)-6-hydroxy-benzo[b]thiophen-3-yl)oxy)phenyl)-acrylic acid] | 1 nM | 15% | –
Cc1cccc(-c2sc3cc(O)ccc3c2Oc2ccc(/C=C/C(=O)O)cc2)c1C [Example 13, (E)-3-(4-((2-(2,3-dimethylphenyl)-6-hydroxybenzo[b]thiophen-3-yl)oxy)phenyl)-acrylic acid] | 2 nM | 14% | –
Cc1ccc(C)c(-c2sc3cc(O)ccc3c2Oc2ccc(/C=C/C(=O)O)cc2)c1 [Example 14, (E)-3-(4-((2-(2,5-dimethylphenyl)-6-hydroxybenzo[b]thiophen-3-yl)oxy)phenyl)-acrylic acid] | 6 nM | 15% | –
Cc1noc(C)c1-c1sc2cc(O)ccc2c1Oc1ccc(/C=C/C(=O)O)cc1 [Example 15, (E)-3-(4-((2-(3,5-dimethylisoxazol-4-yl)-6-hydroxybenzo-[b]thiophen-3-yl)oxy)-phenyl)acrylic acid] | 12 nM | 20% | –
Cc1c(O)cccc1-c1sc2cc(O)ccc2c1Oc1ccc(/C=C/C(=O)O)cc1 [Example 16, (E)-3-(4-((6-hydroxy-2-(3-hydroxy-2-methyl-phenyl)benzo[b]thiophen-3-yl)oxy)phenyl)-acrylic acid] | 6 nM | 26% | –
CCc1ccccc1-c1sc2cc(O)ccc2c1Oc1ccc(/C=C/C(=O)O)cc1 [Example 18, (E)-3-(4-((2-(2-ethylphenyl)-6-hydroxybenzo[b]thiophen-3-yl)oxy)phenyl)-acrylic acid] | 1 nM | 23% | –
CC(=O)c1ccccc1-c1sc2cc(O)ccc2c1Oc1ccc(/C=C/C(=O)O)cc1 [Example 19, (E)-3-(4-((2-(2-acetylphenyl)-6-hydroxybenzo[b]thiophen-3-yl)oxy)phenyl)-acrylic acid] | 7 nM | 19% | –
CC(C)(C)c1ccccc1-c1sc2cc(O)ccc2c1Oc1ccc(/C=C/C(=O)O)cc1 [Example 20, (E)-3-(4-((2-(2-(tert-butyl)phenyl)-6-hydroxybenzo[b]thiophen-3-yl)oxy)phenyl)-acrylic acid] | 1 nM | 22% | –

SMILES | IC50 [1] | % ERα remaining | DC50 (inflection point of the degradation in response to ligand concentration, read-out: ERα IC50)
O=C(O)/C=C/c1ccc(Oc2c(-c3ccccc3[N+](=O)[O-])sc3cc(O)ccc23)cc1 [Example 21, (E)-3-(4-((6-hydroxy-2-(2-nitrophenyl)-benzo[b]thiophen-3-yl)oxy)phenyl)-acrylic acid] | 15 nM | 22% | –
CC(C)(C)c1ccc(-c2sc3cc(O)ccc3c2Oc2ccc(/C=C/C(=O)O)cc2)cc1 [Example 22, (E)-3-(4-((2-(4-(tert-butyl)phenyl)-6-hydroxybenzo[b]thiophen-3-yl)oxy)phenyl)-acrylic acid] | 32 nM | 18% | –
Cc1cc(C)cc(-c2sc3cc(O)ccc3c2Oc2ccc(/C=C/C(=O)O)cc2)c1 [Example 23, (E)-3-(4-((2-(3,5-dimethylphenyl)-6-hydroxybenzo[b]thiophen-3-yl)oxy)phenyl)-acrylic acid] | 30 nM | 22% | –
C[C@H](O)c1ccccc1-c1sc2cc(O)ccc2c1Oc1ccc(/C=C/C(=O)O)cc1 [Example 25, (S,E)-3-(4-((6-hydroxy-2-(2-(1-hydroxyethyl)phenyl)benzo[b]thiophen-3-yl)oxy)phenyl)acrylic acid] | 6 nM | 22% | –
COc1ccc(-c2sc3cc(O)ccc3c2Oc2ccc(/C=C/C(=O)O)cc2)cc1 [Example 26, (E)-3-(4-((6-hydroxy-2-(4-methoxyphenyl)benzo[b]thiophen-3-yl)oxy)phenyl)acrylic acid] | 21 nM | 18% | –
O=C(O)/C=C/c1ccc(Oc2c(-c3ccc(C(F)F)cc3)sc3cc(O)ccc23)cc1 [Example 27, (E)-3-(4-((2-(4-(difluoromethyl)phenyl)-6-hydroxybenzo[b]thiophen-3-yl)oxy)phenyl)acrylic acid] | 85 nM | 21% | –
C/C(=C\c1ccc(Oc2c(-c3ccc(O)cc3)sc3cc(O)ccc23)cc1)C(=O)O [Example 28, (E)-3-(4-((6-hydroxy-2-(4-hydroxyphenyl)-benzo[b]thiophen-3-yl)oxy)phenyl)-2-methylacrylic acid] | – | 33% | –
O=C(O)/C=C/c1ccc(Oc2c(-c3ccc(O)cc3)sc3cc(O)ccc23)cn1 [Example 29, (E)-3-(5-((6-hydroxy-2-(4-hydroxyphenyl)benzo[b]thiophen-3-yl)oxy)pyridin-2-yl)acrylic acid] | – | 26% | –
CN(c1ccc(/C=C/C(=O)O)cc1)c1c(-c2ccc(O)cc2)sc2cc(O)ccc12 [Example 30, (E)-3-(4-((6-hydroxy-2-(4-hydroxyphenyl)benzo[b]thiophen-3-yl)(methyl)amino)phenyl)acrylic acid] | – | 30% | –
O=C(/C=C/c1ccc(Oc2c(-c3ccc(O)cc3)sc3cc(O)ccc23)cc1)NCCC(F)(F)F [Example 31, (E)-3-(4-((6-hydroxy-2-(4-hydroxyphenyl)benzo[b]thiophen-3-yl)oxy)phenyl)-N-(3,3,3-trifluoropropyl)acrylamide] | 1 nM | 45% | –
Cc1cc(F)ccc1-c1sc2cc(O)ccc2c1Oc1ccc(/C=C/C(=O)NO)cc1 [Example 32, (E)-3-(4-((2-(4-fluoro-2-methylphenyl)-6-hydroxybenzo [b]thiophen-3-yl)oxy)phenyl)-N-hydroxyacrylamide] | – | 25% | 17 nM
O=C(/C=C/c1ccc(Oc2c(-c3ccc(F)cc3)sc3cc(O)ccc23)cc1)NCCC(F)(F)F [Example 33, (E)-3-(4-((2-(4-fluorophenyl)-6-hydroxybenzo[b]thiophen-3-yl)oxy)phenyl)-N-(3,3,3-trifluoropropyl)-acrylamide] | 10 nM | 32% | –
CCOC(=O)/C=C/c1ccc(Oc2c(-c3ccc(O)cc3)sc3cc(O)ccc23)cc1C [Example 34, (E)-ethyl 3-(4-((6-hydroxy-2-(4-hydroxyphenyl)benzo[b]thiophen-3-yl)oxy)-2-methylphenyl)acrylate] | 112 nM | 42% | –
CCOC(=O)/C=C/c1ccc(Oc2c(-c3ccc(O)cc3)sc3cc(O)ccc23)c(C)c1 [Example 35, (E)-ethyl 3-(4-((6-hydroxy-2-(4-hydroxyphenyl)benzo[b]thiophen-3-yl)oxy)-3-methylphenyl)acrylate] | – | 33% | –
COC(=O)/C=C/c1ccc(Oc2c(-c3ccc(F)cc3)sc3cc(O)ccc23)cc1 [Example 36, (E)-methyl 3-(4-((2-(4-fluorophenyl)-6-hydroxybenzo[b]thiophen-3-yl)oxy)phenyl)-acrylate] | – | 28% | –
COC(=O)/C=C/c1ccc(Oc2c(-c3ccc(O)cc3)sc3c(F)c(O)c(F)cc23)cc1 [Example 37, (E)-methyl 3-(4-((5,7-difluoro-6-hydroxy-2-(4-hydroxyphenyl)-benzo[b]thiophen-3-yl)oxy)phenyl)acrylate] | – | 38% | –
